What was measured:
[1] = test system: Lewis cell lung cancer model; conditions: tail vein, once a day for 10 days from 5th day
Protocol: 3) On the 1st day, 1×10^6 Lewis cells were inoculated into a C57BL/6 mouse via tail vein, and a total of 32 C57BL/6 mice were injected to obtain the C57BL/6 mice of Lewis cell lung cancer model which were randomly divided into four groups equally, namely, experiment group 1, experiment group 2, experiment group 3 and control group.
From the 15th day, all of the C57BL/6 mice were fed normally, and the survival status of the C57BL/6 mice in each group was observed.

[2] = test system: H22 cell hepatoma ascites model; assay: Survival of BALB/c mouse H22 hepatoma ascites model; assay type: in vivo; conditions: until the 34th (H22-MPs), 33th (Ery-MPs), 31th (methotrexate) day; 10 mice per group
Protocol: 3) On the first day, 5×10^4 H22 cells were intraperitoneally inoculated into BALB/c mice, and a total of 40 BALB/c mice were injected to obtain the one with H22 cell hepatoma ascites model, which were randomly divided into four groups equally, namely experimental group 1, experimental group 2, experimental group 3 and control group. The BALB/c mice in experimental group 1 were intraperitoneally injected with H22-MPs (MTX); the BALM mice in experimental group 2 were intraperitoneally injected with Ery-MPs (MTX); the BALB/c mice in experimental group 3 were intraperitoneally injected with methotrexate at a dose of 1 μg/g; and the BALB/c mice in the control group were intraperitoneally injected with 200 μL of 0.9% (g/ml) physiological saline.
4) From the 4th day, according to the same injection procedure, the experimental groups were injected with H22-MPs (MTX), Ery-MPs (MTX) and chemotherapy drug (methotrexate) once a day for 7 consecutive days, respectively, while the control group was injected with 200 μL 0.9% (g/ml) physiological saline once a day for 7 consecutive days. From the 11th day, all of the BALB/c mice were fed normally, and the survival status of the BALB/c mice in each group was observed.

[3] = Toxicity and side effect test in BALB/c mice (GPT, serum creatinine, APTT, PT); assay type: in vivo; conditions: tail vein, once a day for 7 days; blood on 8th day
Protocol: 3) The prepared H22-MPs (MTX) was injected into 8 BALB/c mice via tail vein respectively, as the experimental group 1; the prepared Ery-MPs (MTX) was injected into 8 BALM mice via tail vein respectively, as the experimental group 2; 8 mice BALB/c mice were injected with methotrexate via tail vein at a dose of 1 μg/g, as the experimental group 3; 8 mice BALB/c mice were injected with 0.9% (g/ml) physiological saline via tail vein, as the control group.
4) On the 8th day, venous blood was taken from the mice in the experimental group 1, the experimental group 2, the experimental group 3 and the control group, and the content of glutamic-pyruvic transaminase, creatinine in serum and the content of APTT and PT in the blood were detected. The body weights of the mice were weighed.

Structure (SMILES): CN(Cc1cnc2nc(N)nc(N)c2n1)c1ccc(C(=O)N[C@@H](CCC(=O)O)C(=O)O)cc1 [methotrexate]
- therapeutic effect on lung cancer in mice (survival curve) [1]: much poorer than that of Ery-MPs (MTX) and LLC-MPs (MTX)
- total mice died [2]: 9 mice
- average activated partial prothrombin time (APTT) [3]: 16.5 s
- average plastin time (PT) [3]: 13.13 s
- average serum creatinine content [3]: 26.13 µmol/L

Source: patent US20190224238A1, “TUMOR THERAPEUTIC DRUG” (HUBEI SOUNDNY BIO TECH CO., LTD., priority 2016, published 2019)
